One test concerns the target D(3) dopamine receptor (Homo sapiens, UniProt P35462). Description: PDSP Secondary Binding target: DRD3 - Compounds are tested at 10 uM concentration, plate are incubated at room temperature in the dark for 90 minutes. Reaction are stopped by vacuum filtration onto 0.3% polyethyleneimine soaked filter mats using Filtermate harvester. Scintillation cocktail is then melted onto microwave-dried filters on a hot plate and the radio activity is counted in Microbia counter.

The target in test [1] is Kappa-type opioid receptor (Homo sapiens, UniProt P41145). Briefly: PDSP Secondary Binding target: OPRK1 - Compounds are tested at 10 uM concentration, plate are incubated at room temperature in the dark for 90 minutes. Reaction are stopped by vacuum filtration onto 0.3% polyethyleneimine soaked filter mats using Filtermate harvester. Scintillation cocktail is then melted onto microwave-dried filters on a hot plate and the radio activity is counted in Microbia counter.

In another test the target is Mu-type opioid receptor (Homo sapiens, UniProt P35372). Description: PDSP Secondary Binding target: OPRM1 - Compounds are tested at 10 uM concentration, plate are incubated at room temperature in the dark for 90 minutes. Reaction are stopped by vacuum filtration onto 0.3% polyethyleneimine soaked filter mats using Filtermate harvester. Scintillation cocktail is then melted onto microwave-dried filters on a hot plate and the radio activity is counted in Microbia counter.

Test [2] deals with T1, Alpha-2B adrenergic receptor (Homo sapiens, UniProt P18089).
T1 sequence (P18089 whole entry): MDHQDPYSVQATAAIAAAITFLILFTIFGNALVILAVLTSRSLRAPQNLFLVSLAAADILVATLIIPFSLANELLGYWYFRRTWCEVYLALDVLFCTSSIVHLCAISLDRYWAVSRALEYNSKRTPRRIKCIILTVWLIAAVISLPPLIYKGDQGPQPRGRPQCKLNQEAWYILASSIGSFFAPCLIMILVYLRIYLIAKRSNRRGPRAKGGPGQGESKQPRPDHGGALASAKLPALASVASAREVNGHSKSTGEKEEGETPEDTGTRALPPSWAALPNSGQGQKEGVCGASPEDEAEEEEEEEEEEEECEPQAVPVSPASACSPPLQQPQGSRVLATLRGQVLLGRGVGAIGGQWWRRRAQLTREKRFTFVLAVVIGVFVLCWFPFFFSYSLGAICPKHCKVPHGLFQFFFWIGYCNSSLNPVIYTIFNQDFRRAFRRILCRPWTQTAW
Briefly: PDSP Secondary Binding target: ADRA2B - Compounds are tested at 10 uM concentration, plate are incubated at room temperature in the dark for 90 minutes. Reaction are stopped by vacuum filtration onto 0.3% polyethyleneimine soaked filter mats using Filtermate harvester. Scintillation cocktail is then melted onto microwave-dried filters on a hot plate and the radio activity is counted in Microbia counter.

The target of test [3] is T2, Alpha-2A adrenergic receptor (Homo sapiens, UniProt P08913).
T2 sequence (P08913 whole entry): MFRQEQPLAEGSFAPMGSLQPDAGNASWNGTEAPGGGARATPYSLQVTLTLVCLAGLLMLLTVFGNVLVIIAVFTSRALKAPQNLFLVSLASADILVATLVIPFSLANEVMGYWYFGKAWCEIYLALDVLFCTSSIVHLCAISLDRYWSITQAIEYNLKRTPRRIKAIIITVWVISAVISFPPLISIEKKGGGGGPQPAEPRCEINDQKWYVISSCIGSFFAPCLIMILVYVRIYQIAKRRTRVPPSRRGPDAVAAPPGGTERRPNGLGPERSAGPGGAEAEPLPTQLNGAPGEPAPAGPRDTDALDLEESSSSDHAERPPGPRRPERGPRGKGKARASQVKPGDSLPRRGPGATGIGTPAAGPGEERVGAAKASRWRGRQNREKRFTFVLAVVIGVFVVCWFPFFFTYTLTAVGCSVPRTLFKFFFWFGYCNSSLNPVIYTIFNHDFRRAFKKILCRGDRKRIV
Description: PDSP Secondary Binding target: ADRA2A - Compounds are tested at 10 uM concentration, plate are incubated at room temperature in the dark for 90 minutes. Reaction are stopped by vacuum filtration onto 0.3% polyethyleneimine soaked filter mats using Filtermate harvester. Scintillation cocktail is then melted onto microwave-dried filters on a hot plate and the radio activity is counted in Microbia counter.

The target of another test is D(1B) dopamine receptor (Homo sapiens, UniProt P21918). Briefly: PDSP Secondary Binding target: DRD5 - Compounds are tested at 10 uM concentration, plate are incubated at room temperature in the dark for 90 minutes. Reaction are stopped by vacuum filtration onto 0.3% polyethyleneimine soaked filter mats using Filtermate harvester. Scintillation cocktail is then melted onto microwave-dried filters on a hot plate and the radio activity is counted in Microbia counter.

The target of test [4] is Sigma intracellular receptor 2 (Homo sapiens, UniProt Q5BJF2). Briefly: PDSP Secondary Binding target: TMEM97 - Compounds are tested at 10 uM concentration, plate are incubated at room temperature in the dark for 90 minutes. Reaction are stopped by vacuum filtration onto 0.3% polyethyleneimine soaked filter mats using Filtermate harvester. Scintillation cocktail is then melted onto microwave-dried filters on a hot plate and the radio activity is counted in Microbia counter.

For test [5], the target named is Sodium-dependent serotonin transporter (Homo sapiens, UniProt P31645). Description: PDSP Secondary Binding target: SLC6A4 - Compounds are tested at 10 uM concentration, plate are incubated at room temperature in the dark for 90 minutes. Reaction are stopped by vacuum filtration onto 0.3% polyethyleneimine soaked filter mats using Filtermate harvester. Scintillation cocktail is then melted onto microwave-dried filters on a hot plate and the radio activity is counted in Microbia counter.

Test [6] has as its target T3, Alpha-2C adrenergic receptor (Homo sapiens, UniProt P18825).
T3 sequence (P18825 whole entry): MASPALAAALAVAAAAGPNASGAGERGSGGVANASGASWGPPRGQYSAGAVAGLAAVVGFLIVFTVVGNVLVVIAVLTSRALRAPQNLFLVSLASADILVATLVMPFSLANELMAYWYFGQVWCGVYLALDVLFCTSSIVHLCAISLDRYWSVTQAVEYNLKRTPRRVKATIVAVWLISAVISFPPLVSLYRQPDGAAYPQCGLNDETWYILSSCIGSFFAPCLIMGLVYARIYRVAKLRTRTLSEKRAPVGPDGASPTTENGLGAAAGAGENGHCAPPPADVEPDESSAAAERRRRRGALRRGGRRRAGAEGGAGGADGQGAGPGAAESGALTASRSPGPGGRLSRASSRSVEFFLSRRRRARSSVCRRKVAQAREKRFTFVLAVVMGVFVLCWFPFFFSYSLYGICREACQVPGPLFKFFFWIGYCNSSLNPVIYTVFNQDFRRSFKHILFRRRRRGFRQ
Description: PDSP Secondary Binding target: ADRA2C - Compounds are tested at 10 uM concentration, plate are incubated at room temperature in the dark for 90 minutes. Reaction are stopped by vacuum filtration onto 0.3% polyethyleneimine soaked filter mats using Filtermate harvester. Scintillation cocktail is then melted onto microwave-dried filters on a hot plate and the radio activity is counted in Microbia counter.

The target in test [7] is 5-hydroxytryptamine receptor 2A (Homo sapiens, UniProt P28223). Briefly: PDSP Secondary Binding target: HTR2A - Compounds are tested at 10 uM concentration, plate are incubated at room temperature in the dark for 90 minutes. Reaction are stopped by vacuum filtration onto 0.3% polyethyleneimine soaked filter mats using Filtermate harvester. Scintillation cocktail is then melted onto microwave-dried filters on a hot plate and the radio activity is counted in Microbia counter.

The target in test [8] is Sodium-dependent dopamine transporter (Homo sapiens, UniProt Q01959). Description: PDSP Secondary Binding target: SLC6A3 - Compounds are tested at 10 uM concentration, plate are incubated at room temperature in the dark for 90 minutes. Reaction are stopped by vacuum filtration onto 0.3% polyethyleneimine soaked filter mats using Filtermate harvester. Scintillation cocktail is then melted onto microwave-dried filters on a hot plate and the radio activity is counted in Microbia counter.

Test [9] addresses 5-hydroxytryptamine receptor 2B (Homo sapiens, UniProt P41595). Briefly: PDSP Secondary Binding target: HTR2B - Compounds are tested at 10 uM concentration, plate are incubated at room temperature in the dark for 90 minutes. Reaction are stopped by vacuum filtration onto 0.3% polyethyleneimine soaked filter mats using Filtermate harvester. Scintillation cocktail is then melted onto microwave-dried filters on a hot plate and the radio activity is counted in Microbia counter.

Test [10] addresses Sodium-dependent noradrenaline transporter (Homo sapiens, UniProt P23975). Description: PDSP Secondary Binding target: SLC6A2 - Compounds are tested at 10 uM concentration, plate are incubated at room temperature in the dark for 90 minutes. Reaction are stopped by vacuum filtration onto 0.3% polyethyleneimine soaked filter mats using Filtermate harvester. Scintillation cocktail is then melted onto microwave-dried filters on a hot plate and the radio activity is counted in Microbia counter.

For test [11], the target named is T4, 5-hydroxytryptamine receptor 2C (Homo sapiens, UniProt P28335).
T4 sequence (P28335 whole entry): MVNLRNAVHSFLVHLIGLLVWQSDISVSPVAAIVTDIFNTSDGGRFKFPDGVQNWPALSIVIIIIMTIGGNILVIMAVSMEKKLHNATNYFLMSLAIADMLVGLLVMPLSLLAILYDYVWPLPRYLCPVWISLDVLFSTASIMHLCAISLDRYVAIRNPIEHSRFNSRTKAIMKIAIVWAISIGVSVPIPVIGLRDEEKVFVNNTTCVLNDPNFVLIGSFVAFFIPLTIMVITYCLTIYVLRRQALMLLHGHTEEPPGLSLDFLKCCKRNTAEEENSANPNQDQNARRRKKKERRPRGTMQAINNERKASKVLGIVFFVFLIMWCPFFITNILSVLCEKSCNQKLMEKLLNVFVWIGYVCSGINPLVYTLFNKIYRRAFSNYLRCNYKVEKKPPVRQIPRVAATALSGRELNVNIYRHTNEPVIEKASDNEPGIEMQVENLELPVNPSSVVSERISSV
Description: PDSP Secondary Binding target: HTR2C - Compounds are tested at 10 uM concentration, plate are incubated at room temperature in the dark for 90 minutes. Reaction are stopped by vacuum filtration onto 0.3% polyethyleneimine soaked filter mats using Filtermate harvester. Scintillation cocktail is then melted onto microwave-dried filters on a hot plate and the radio activity is counted in Microbia counter.

The target in test [12] is Sigma non-opioid intracellular receptor 1 (Homo sapiens, UniProt Q99720). Briefly: PDSP Secondary Binding target: SIGMAR1 - Compounds are tested at 10 uM concentration, plate are incubated at room temperature in the dark for 90 minutes. Reaction are stopped by vacuum filtration onto 0.3% polyethyleneimine soaked filter mats using Filtermate harvester. Scintillation cocktail is then melted onto microwave-dried filters on a hot plate and the radio activity is counted in Microbia counter.

In another test the target is D(2) dopamine receptor (Homo sapiens, UniProt P14416). Description: PDSP Secondary Binding target: DRD2 - Compounds are tested at 10 uM concentration, plate are incubated at room temperature in the dark for 90 minutes. Reaction are stopped by vacuum filtration onto 0.3% polyethyleneimine soaked filter mats using Filtermate harvester. Scintillation cocktail is then melted onto microwave-dried filters on a hot plate and the radio activity is counted in Microbia counter.

Test [13] has as its target Beta-3 adrenergic receptor (Homo sapiens, UniProt P13945). Description: PDSP Secondary Binding target: ADRB3 - Compounds are tested at 10 uM concentration, plate are incubated at room temperature in the dark for 90 minutes. Reaction are stopped by vacuum filtration onto 0.3% polyethyleneimine soaked filter mats using Filtermate harvester. Scintillation cocktail is then melted onto microwave-dried filters on a hot plate and the radio activity is counted in Microbia counter.

The target of test [14] is T5, Muscarinic acetylcholine receptor M5 (Homo sapiens, UniProt P08912).
T5 sequence (P08912 whole entry): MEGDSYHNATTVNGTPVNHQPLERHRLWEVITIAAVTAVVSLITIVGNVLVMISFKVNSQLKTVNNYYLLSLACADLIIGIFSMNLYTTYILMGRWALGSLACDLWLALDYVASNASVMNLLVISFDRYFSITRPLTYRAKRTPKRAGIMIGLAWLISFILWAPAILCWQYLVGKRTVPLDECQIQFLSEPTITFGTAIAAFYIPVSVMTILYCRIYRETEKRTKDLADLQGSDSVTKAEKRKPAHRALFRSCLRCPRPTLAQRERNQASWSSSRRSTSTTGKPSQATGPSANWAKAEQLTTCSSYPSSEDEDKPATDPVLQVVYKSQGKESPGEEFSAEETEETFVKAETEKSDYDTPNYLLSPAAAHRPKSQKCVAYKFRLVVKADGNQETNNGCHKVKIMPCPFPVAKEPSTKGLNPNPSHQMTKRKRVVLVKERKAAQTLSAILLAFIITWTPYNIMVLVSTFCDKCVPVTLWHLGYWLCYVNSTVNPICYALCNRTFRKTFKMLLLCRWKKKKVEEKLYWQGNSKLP
Briefly: PDSP Secondary Binding target: CHRM5 - Compounds are tested at 10 uM concentration, plate are incubated at room temperature in the dark for 90 minutes. Reaction are stopped by vacuum filtration onto 0.3% polyethyleneimine soaked filter mats using Filtermate harvester. Scintillation cocktail is then melted onto microwave-dried filters on a hot plate and the radio activity is counted in Microbia counter.

In ChEMBL document CHEMBL5442175, “EUbOPEN Chemogenomics Library - PDSP Secondary Binding” (2024) one finds Ki data, which are given here for six compounds.

In general, Ki refers to the dissociation constant of the complex between target and ligand, obtained from inhibition or displacement. The low end stands for a stronger hold on the target, the high end for a looser hold on the target.

Sequence of Sigma intracellular receptor 2 (Q5BJF2 whole entry): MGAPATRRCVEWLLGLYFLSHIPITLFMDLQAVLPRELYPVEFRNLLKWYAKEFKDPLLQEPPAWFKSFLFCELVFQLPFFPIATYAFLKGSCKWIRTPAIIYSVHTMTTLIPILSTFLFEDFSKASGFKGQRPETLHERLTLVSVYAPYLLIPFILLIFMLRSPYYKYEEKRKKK
Sequence of D(1B) dopamine receptor (P21918 whole entry): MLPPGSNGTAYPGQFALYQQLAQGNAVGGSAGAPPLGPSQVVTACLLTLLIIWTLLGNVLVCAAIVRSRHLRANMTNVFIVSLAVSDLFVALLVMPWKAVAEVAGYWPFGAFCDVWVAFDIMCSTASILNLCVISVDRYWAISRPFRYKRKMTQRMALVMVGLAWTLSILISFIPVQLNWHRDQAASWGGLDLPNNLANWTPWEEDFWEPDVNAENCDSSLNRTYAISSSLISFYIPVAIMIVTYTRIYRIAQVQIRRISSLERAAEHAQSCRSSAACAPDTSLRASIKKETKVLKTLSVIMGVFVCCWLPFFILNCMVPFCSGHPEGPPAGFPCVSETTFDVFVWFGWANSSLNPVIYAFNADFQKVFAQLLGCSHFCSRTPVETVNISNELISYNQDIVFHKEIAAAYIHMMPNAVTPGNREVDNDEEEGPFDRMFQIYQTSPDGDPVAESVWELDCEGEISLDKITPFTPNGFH
Sequence of Sigma non-opioid intracellular receptor 1 (Q99720 whole entry): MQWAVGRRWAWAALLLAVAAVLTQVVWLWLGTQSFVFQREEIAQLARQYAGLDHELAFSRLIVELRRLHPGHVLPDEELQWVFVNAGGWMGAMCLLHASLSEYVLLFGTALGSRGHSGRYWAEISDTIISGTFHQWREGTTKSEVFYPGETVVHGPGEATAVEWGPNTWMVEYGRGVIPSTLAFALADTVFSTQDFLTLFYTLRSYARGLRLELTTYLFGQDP
Sequence of Sodium-dependent noradrenaline transporter (P23975 whole entry): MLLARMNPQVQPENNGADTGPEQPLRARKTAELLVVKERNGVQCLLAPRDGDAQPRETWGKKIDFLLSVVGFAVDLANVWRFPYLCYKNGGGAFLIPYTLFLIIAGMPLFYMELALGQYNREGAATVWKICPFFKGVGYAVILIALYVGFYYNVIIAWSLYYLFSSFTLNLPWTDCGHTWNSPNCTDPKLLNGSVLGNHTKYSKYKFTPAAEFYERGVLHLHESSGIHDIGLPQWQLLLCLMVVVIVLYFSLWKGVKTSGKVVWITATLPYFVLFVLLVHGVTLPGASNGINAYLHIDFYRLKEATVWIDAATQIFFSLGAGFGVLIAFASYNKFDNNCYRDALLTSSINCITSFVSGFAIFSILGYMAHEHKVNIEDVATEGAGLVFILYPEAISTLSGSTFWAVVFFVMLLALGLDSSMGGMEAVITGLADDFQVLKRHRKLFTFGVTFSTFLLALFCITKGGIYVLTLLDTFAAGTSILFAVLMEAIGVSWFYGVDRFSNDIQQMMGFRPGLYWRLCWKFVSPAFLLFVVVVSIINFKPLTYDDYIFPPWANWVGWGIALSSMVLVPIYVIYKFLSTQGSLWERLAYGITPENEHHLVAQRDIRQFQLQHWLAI
Sequence of Mu-type opioid receptor (P35372 whole entry): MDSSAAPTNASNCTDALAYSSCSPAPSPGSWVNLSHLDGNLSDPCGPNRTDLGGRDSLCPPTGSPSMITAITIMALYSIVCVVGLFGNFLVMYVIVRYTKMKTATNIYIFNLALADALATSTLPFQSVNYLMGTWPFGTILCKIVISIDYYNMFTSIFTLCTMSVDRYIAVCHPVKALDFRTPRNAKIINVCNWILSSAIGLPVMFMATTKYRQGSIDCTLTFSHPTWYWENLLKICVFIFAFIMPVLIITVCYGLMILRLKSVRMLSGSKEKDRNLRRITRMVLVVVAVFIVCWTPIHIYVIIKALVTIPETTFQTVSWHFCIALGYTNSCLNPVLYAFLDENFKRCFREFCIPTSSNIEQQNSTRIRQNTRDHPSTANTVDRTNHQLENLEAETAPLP
Sequence of Sodium-dependent serotonin transporter (P31645 whole entry): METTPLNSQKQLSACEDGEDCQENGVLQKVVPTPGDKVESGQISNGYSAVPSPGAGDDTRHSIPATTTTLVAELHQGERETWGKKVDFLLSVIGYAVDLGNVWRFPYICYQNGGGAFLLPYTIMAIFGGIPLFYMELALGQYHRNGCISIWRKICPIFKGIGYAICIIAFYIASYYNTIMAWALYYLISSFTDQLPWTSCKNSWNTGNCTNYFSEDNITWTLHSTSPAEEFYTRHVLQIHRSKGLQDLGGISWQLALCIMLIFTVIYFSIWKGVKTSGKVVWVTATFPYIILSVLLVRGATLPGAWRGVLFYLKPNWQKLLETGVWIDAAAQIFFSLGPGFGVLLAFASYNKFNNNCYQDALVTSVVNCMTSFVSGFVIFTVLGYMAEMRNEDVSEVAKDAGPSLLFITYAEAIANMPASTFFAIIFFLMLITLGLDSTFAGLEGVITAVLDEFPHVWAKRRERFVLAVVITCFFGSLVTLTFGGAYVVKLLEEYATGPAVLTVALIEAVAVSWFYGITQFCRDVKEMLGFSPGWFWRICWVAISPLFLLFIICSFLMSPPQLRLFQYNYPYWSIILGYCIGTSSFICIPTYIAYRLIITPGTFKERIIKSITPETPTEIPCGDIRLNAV
Sequence of Beta-3 adrenergic receptor (P13945 whole entry): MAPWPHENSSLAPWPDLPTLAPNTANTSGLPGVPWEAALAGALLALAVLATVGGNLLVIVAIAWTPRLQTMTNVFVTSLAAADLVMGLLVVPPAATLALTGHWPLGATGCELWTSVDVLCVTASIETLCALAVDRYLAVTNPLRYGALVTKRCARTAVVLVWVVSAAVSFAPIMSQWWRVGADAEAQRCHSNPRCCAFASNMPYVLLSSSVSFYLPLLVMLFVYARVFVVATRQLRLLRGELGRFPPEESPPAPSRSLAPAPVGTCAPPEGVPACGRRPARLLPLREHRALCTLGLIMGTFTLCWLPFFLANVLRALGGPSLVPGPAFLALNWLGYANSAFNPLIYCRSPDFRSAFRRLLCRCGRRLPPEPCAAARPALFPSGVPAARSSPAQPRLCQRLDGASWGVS
Sequence of 5-hydroxytryptamine receptor 2A (P28223 whole entry): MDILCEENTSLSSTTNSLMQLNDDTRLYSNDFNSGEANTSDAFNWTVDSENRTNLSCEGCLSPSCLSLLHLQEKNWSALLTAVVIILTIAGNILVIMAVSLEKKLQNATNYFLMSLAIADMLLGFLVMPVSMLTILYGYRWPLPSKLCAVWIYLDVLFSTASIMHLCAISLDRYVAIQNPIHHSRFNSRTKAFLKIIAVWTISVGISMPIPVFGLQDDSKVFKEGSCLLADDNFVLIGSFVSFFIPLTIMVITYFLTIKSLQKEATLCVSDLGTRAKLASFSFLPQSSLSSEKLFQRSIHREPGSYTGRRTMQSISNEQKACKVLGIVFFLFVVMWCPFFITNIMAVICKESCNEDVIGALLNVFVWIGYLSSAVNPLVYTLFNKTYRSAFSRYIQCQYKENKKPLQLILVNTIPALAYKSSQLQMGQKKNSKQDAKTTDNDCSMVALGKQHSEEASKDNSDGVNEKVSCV
Sequence of Kappa-type opioid receptor (P41145 whole entry): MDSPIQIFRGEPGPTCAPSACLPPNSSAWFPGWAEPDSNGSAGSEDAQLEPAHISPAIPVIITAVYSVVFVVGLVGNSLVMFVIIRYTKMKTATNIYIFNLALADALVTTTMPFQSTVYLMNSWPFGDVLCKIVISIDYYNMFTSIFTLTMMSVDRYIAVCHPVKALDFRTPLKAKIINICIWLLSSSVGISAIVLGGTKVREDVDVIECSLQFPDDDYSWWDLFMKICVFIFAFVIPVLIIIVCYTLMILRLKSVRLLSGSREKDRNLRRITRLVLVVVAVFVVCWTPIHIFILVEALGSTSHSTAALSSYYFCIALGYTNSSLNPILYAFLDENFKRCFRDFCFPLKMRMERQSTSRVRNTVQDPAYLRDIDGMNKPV
Sequence of D(2) dopamine receptor (P14416 whole entry): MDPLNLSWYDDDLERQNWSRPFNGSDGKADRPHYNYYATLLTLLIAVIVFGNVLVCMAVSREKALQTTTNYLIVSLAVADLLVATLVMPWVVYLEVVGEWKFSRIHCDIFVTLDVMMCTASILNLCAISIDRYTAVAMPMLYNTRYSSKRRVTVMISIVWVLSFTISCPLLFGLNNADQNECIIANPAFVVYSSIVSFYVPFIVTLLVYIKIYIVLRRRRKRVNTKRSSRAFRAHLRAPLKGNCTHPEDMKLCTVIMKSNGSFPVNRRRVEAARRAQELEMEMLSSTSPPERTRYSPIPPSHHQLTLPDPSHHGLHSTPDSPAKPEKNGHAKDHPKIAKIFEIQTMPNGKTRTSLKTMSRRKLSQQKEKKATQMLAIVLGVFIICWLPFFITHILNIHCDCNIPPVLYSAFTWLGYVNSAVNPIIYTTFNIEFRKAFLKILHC
Sequence of 5-hydroxytryptamine receptor 2B (P41595 whole entry): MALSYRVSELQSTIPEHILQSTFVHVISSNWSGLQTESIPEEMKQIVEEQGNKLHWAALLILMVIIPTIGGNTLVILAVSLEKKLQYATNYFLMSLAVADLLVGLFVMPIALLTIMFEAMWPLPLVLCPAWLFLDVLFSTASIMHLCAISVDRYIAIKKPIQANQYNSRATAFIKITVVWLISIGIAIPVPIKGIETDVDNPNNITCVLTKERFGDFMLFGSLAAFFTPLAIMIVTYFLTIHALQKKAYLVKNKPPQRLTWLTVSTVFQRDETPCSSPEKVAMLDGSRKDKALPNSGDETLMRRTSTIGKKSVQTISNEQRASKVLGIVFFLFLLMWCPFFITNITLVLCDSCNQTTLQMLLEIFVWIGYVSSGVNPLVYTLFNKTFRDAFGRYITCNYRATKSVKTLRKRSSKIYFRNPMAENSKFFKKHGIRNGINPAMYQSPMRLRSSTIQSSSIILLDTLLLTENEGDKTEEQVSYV

`CC1CCN(CC[C@H]2CCCN2S(=O)(=O)c2cccc(O)c2)CC1`: the inhibition constant (Ki) is 568 nM on D(3) dopamine receptor; 448 nM in test [1]; 185 nM on Mu-type opioid receptor; 311 nM in test [2]; 1180 nM in test [3]; more than 10000 nM at D(1B) dopamine receptor. In addition, the inhibition constant Ki was 10.2 nM in [4], more than 10000 nM in [5] and 1740 nM in [6].
In the case of `O=C(c1cc2c(cc1F)OC(c1ccc(F)cc1)(c1ccc(Cl)cc1Cl)O2)N1CCOCC1` (configuration not stated), the Ki came to 2660 nM in test [7]; 3460 nM in test [8]; 503 nM in test [1]; 3140 nM at Mu-type opioid receptor; 708 nM at D(1B) dopamine receptor; 509 nM in test [4]. The figures for the inhibition constant Ki in test [9], in test [10] and in [11] were 607 nM, 2540 nM and 319 nM, respectively.
On to `Cc1cc(NC(=O)NCCN2CCC(O)(Cc3ccccc3)CC2)c2ccccc2n1` [PALOSURAN], for which the inhibition constant (Ki) in test [7] was found to be 1590 nM; in [3], 1020 nM; in test [4], 956 nM; in test [5] it was 995 nM; in test [12] it was 1700 nM; in test [10], 1090 nM. Moreover, the Ki turned out to be 596 nM at D(2) dopamine receptor and 139 nM in test [11].
As to `CC(C)NCC(O)c1ccc(N)c(C#N)c1` (configuration not stated) [CIMATEROL], the Ki in test [13] turned out to be 1870 nM.
For the compound `CCC[C@H](Oc1cc(C)c(-n2cc(C(F)(F)F)cn2)c(C)c1)c1ccc(C(=O)NCCC(=O)O)cc1` [PF-06291874], the Ki in [13] was more than 10000 nM; in [3], more than 10000 nM; in test [14], 8580 nM.
As to `OC[C@H]1O[C@@H](n2cnc3c(NC4CCCC4)ncnc32)[C@H](O)[C@@H]1O` [N6-CYCLOPENTYLADENOSINE], the Ki on D(1B) dopamine receptor is more than 10000 nM; in [12], 2610 nM.
